The target in assay [1] is T1, human TLR7 (Homo sapiens, UniProt Q9NYK1).
T1 construct: host or cells: HEK-Blue cells
T1 sequence (Q9NYK1 27-1049): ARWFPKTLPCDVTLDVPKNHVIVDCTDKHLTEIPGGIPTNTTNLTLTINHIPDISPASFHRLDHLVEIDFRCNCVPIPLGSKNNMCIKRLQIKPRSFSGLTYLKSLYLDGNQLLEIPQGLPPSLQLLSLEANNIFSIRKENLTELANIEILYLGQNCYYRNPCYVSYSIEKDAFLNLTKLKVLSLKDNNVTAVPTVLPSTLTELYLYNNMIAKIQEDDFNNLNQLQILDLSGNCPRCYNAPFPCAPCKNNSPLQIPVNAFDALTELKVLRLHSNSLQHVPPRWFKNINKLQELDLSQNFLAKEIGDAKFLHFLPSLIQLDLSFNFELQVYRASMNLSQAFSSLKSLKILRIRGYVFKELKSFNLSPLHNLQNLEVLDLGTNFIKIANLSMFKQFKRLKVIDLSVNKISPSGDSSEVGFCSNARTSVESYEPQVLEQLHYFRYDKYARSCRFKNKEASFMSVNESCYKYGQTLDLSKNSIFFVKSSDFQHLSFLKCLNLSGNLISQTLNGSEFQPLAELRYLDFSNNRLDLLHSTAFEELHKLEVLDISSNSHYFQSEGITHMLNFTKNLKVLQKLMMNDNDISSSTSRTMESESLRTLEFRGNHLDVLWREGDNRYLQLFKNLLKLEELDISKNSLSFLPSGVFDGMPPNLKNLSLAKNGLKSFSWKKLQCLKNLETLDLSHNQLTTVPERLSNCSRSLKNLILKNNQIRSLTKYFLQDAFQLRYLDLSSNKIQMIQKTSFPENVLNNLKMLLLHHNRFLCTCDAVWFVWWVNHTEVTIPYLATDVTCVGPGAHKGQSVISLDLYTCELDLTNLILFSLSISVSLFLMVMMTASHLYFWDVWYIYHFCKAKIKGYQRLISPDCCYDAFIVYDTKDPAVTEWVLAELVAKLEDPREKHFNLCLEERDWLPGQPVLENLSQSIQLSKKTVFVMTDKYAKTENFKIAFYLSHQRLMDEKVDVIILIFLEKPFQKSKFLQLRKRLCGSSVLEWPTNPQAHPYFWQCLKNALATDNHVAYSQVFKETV
Briefly: TLR7 inhibition reporter assay (HEK-Blue cells, SEAP reporter, gardiquimod stimulation). Format: cell-based. The following applies: HEK-Blue cells overexpressing human TLR7, SEAP reporter, gardiquimod 7.5 μM; read-out: TLR7 IC50. On the procedure: (§1) TLR7/8/9 Inhibition Reporter Assays
(§2) HEK-Blue™-cells (Invivogen) overexpressing human TLR7, TLR8 or TLR9 receptors were used for screening inhibitors of these receptors using an inducible SEAP (secreted embryonic alkaline phosphatase) reporter gene under the control of the IFN-β minimal promoter fused to five NF-κB and AP-1-binding sites. Briefly, cells are seeded into Greiner 384 well plates (15000 cells per well for TLR7, 20,000 for TLR8 and 25,000 for TLR9) and then treated with test compounds in DMSO to yield a final dose response concentration range of 0.05 nM-50 μM. After a 30 minute compound pre-treatment at room temperature, the cells are then stimulated with a TLR7 ligand (gardiquimod at a final concentration of 7.5 μM), TLR8 ligand (R848 at a final concentration of 15.9 μM) or TLR9 ligand (ODN2006 at a final concentration of 5 nM) to activate NF-κB and AP-1 which induce the production of SEAP. After a 22 hour incubation at 37° C., 5% CO2, SEAP levels are determined with the addition of HEK-Blue™ Detection reagent (Invivogen), a cell culture medium that allows for detection of SEAP, according to manufacturer's specifications. The percent inhibition is determined as the % reduction in the HEK-Blue signal present in wells treated with agonist plus DMSO alone compared to wells treated with a known inhibitor.
(Reporter assays use an easily measured gene product as a stand-in for the process of interest.)

The target in assay [2] is T2, human TLR8 (Homo sapiens, UniProt Q9NR97).
T2 construct: host or cells: HEK-Blue cells
T2 sequence (Q9NR97 27-1041): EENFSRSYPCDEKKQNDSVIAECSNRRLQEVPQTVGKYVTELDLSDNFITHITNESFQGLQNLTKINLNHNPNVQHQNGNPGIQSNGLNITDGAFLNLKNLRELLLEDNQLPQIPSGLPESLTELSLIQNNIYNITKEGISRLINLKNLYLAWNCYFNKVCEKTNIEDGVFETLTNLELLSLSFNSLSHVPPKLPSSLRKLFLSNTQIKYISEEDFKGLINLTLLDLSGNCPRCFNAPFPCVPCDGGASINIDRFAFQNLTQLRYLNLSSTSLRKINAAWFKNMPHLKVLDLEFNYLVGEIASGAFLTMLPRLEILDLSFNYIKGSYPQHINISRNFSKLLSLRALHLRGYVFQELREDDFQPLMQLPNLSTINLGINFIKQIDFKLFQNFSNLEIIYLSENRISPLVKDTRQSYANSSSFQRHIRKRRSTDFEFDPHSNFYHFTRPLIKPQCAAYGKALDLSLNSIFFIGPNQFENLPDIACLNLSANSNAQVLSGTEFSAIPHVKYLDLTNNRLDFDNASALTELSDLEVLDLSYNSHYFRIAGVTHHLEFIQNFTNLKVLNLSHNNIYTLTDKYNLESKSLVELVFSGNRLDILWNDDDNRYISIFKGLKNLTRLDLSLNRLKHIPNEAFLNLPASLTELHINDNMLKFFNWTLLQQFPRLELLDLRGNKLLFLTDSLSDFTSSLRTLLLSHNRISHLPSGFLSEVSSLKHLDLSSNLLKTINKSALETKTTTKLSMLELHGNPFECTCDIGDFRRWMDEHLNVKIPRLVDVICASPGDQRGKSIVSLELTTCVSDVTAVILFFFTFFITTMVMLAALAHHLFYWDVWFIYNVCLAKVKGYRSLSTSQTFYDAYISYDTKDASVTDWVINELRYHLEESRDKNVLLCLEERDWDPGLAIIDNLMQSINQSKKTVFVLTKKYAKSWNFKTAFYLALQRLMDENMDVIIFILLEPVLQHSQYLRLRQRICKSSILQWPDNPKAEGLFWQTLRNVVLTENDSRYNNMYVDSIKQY
Kind of assay: TLR8 inhibition reporter assay (HEK-Blue cells, SEAP reporter, R848 stimulation). Format: cell-based. The following applies: HEK-Blue cells overexpressing human TLR8, SEAP reporter, R848 15.9 μM; read-out: TLR8 IC50. On the procedure:
as §1, §2

`Cc1c(-c2[nH]c3sc(N4CCN(CC(=O)N(C)C)CC4)nc3c2C(C)C)cn2ncnc2c1C` [Example 283, 2-(4-(5-(7,8-dimethyl-[1,2,4]triazolo[1,5-a]pyridin-6-yl)-6-isopropyl-4H-pyrrolo[3,2-d]thiazol-2-yl)piperazin-1-yl)-N,N-dimethylacetamide]: the IC50 worked out at 18.8 nM in assay [1] and 1.7 nM in assay [2].

As to `CNC(=O)CN1CCN(c2nc3c(C(C)C)c(-c4cn5ncnc5c(C)c4C)[nH]c3s2)CC1` [Example 284, 2-(4-(5-(7,8-dimethyl-[1,2,4]triazolo[1,5-a]pyridin-6-yl)-6-isopropyl-4H-pyrrolo[3,2-d]thiazol-2-yl)piperazin-1-yl)-N-methylacetamide], the IC50 in assay [1] was 9.6 nM; in assay [2] it was 5.12 nM.

Take `Cc1c(-c2[nH]c3sc(N4CCN(CC(N)=O)CC4)nc3c2C(C)C)cn2ncnc2c1C` [Example 285, 2-(4-(5-(7,8-dimethyl-[1,2,4]triazolo[1,5-a]pyridin-6-yl)-6-isopropyl-4H-pyrrolo[3,2-d]thiazol-2-yl)piperazin-1-yl)acetamide]: the figures for the IC50 in assay [1] and in assay [2] were 7.7 nM and 2.71 nM, respectively.

Turning to `Cc1c(-c2[nH]c3sc(N4CCN(C5COC5)CC4)nc3c2C(C)C)cn2ncnc2c1C` [Example 286, 5-(7,8-dimethyl-[1,2,4]triazolo[1,5-a]pyridin-6-yl)-6-isopropyl-2-(4-(oxetan-3-yl)piperazin-1-yl)-4H-pyrrolo[3,2-d]thiazole], the IC50 turned out to be 25.6 nM in assay [1] and 14.6 nM in assay [2].

Consider `Cc1c(-c2[nH]c3sc(N4CC5(C4)CN(C4COC4)C5)nc3c2C(C)C)cn2ncnc2c1C` [Example 302, 5-(7,8-dimethyl-[1,2,4]triazolo[1,5-a]pyridin-6-yl)-6-isopropyl-2-(6-(oxetan-3-yl)-2,6-diazaspiro[3.3]heptan-2-yl)-4H-pyrrolo[3,2-d]thiazole], for which the IC50 in assay [1] stood at 9.44 nM; in assay [2], 14.2 nM.

For the compound `Cc1c(-c2[nH]c3sc(N4CC5(CN(CCS(C)(=O)=O)C5)C4)nc3c2C(C)C)cn(C)c(=O)c1C` [Example 305, 5-(6-isopropyl-2-(6-(2-(methylsulfonyl)ethyl)-2,6-diazaspiro[3.3]heptan-2-yl)-4H-pyrrolo[3,2-d]thiazol-5-yl)-1,3,4-trimethylpyridin-2(1H)-one], the figures for the IC50 in assay [1] and in assay [2] were 311 nM and 70 nM, respectively.

For the compound `Cc1c(-c2[nH]c3sc(N4CC5(C4)CN(C4COC4)C5)nc3c2C(C)C)cn(C)c(=O)c1C` [Example 306, 5-(6-isopropyl-2-(6-(oxetan-3-yl)-2,6-diazaspiro[3.3]heptan-2-yl)-4H-pyrrolo[3,2-d]thiazol-5-yl)-1,3,4-trimethylpyridin-2(1H)-one], the figures for the IC50 in assay [1] and in assay [2] were 148 nM and 124 nM, respectively.

In the case of `Cc1c(-c2[nH]c3sc(N4CC5(CN(CC6CCOCC6)C5)C4)nc3c2C(C)C)cn(C)c(=O)c1C` [Example 307, 5-(6-isopropyl-2-(6-((tetrahydro-2H-pyran-4-yl)methyl)-2,6-diazaspiro[3.3]heptan-2-yl)-4H-pyrrolo[3,2-d]thiazol-5-yl)-1,3,4-trimethylpyridin-2(1H)-one], the IC50 in assay [1] turned out to be 118 nM; in assay [2], 9.33 nM.

As to `Cc1c(-c2[nH]c3sc(N4CCN(CC(=O)N(C)C)C[C@H]4C)nc3c2C(C)C)cn2ncnc2c1C` [Example 312, (R)-2-(4-(5-(7,8-dimethyl-[1,2,4]triazolo[1,5-a]pyridin-6-yl)-6-isopropyl-4H-pyrrolo[3,2-d]thiazol-2-yl)-3-methylpiperazin-1-yl)-N,N-dimethylacetamide], the IC50 was determined as 5.42 nM in assay [1] and 17.8 nM in assay [2].

Take `Cc1c(-c2[nH]c3sc(N4CCN(CC(N)=O)C[C@H]4C)nc3c2C(C)C)cn2ncnc2c1C` [Example 313, (R)-2-(4-(5-(7,8-dimethyl-[1,2,4]triazolo[1,5-a]pyridin-6-yl)-6-isopropyl-4H-pyrrolo[3,2-d]thiazol-2-yl)-3-methylpiperazin-1-yl)acetamide]: the IC50 in assay [1] was 3.71 nM; in assay [2], 1.72 nM.

Regarding `Cc1c(-c2[nH]c3sc(N4CCN(CCS(C)(=O)=O)C[C@H]4C)nc3c2C(C)C)cn2ncnc2c1C` [Example 314, (R)-5-(7,8-dimethyl-[1,2,4]triazolo[1,5-a]pyridin-6-yl)-6-isopropyl-2-(2-methyl-4-(2-(methylsulfonyl)ethyl)piperazin-1-yl)-4H-pyrrolo[3,2-d] thiazole], the IC50 in assay [1] came to 13.9 nM; in assay [2], 18.5 nM.

Regarding `CNC(=O)CN1CCN(c2nc3c(C(C)C)c(-c4cn5ncnc5c(C)c4C)[nH]c3s2)[C@H](C)C1` [Example 315, (R)-2-(4-(5-(7,8-dimethyl-[1,2,4]triazolo[1,5-a]pyridin-6-yl)-6-isopropyl-4H-pyrrolo[3,2-d]thiazol-2-yl)-3-methylpiperazin-1-yl)-N-methylacetamide], the IC50 in assay [1] amounted to 5.22 nM; in assay [2], 20.2 nM.

On to `Cc1c(-c2[nH]c3sc(N4CCN(C5COC5)C[C@H]4C)nc3c2C(C)C)cn2ncnc2c1C` [Example 316, (R)-5-(7,8-dimethyl-[1,2,4]triazolo[1,5-a]pyridin-6-yl)-6-isopropyl-2-(2-methyl-4-(oxetan-3-yl)piperazin-1-yl)-4H-pyrrolo[3,2-d]thiazole], for which the IC50 in assay [1] was 12 nM; in assay [2] it was 52.4 nM.

As for `Cc1c(-c2[nH]c3sc(N4C[C@@H](C)N(CC(=O)N(C)C)C[C@@H]4C)nc3c2C(C)C)cn2ncnc2c1C` [Example 335, 2-((2R,5S)-4-(5-(7,8-dimethyl-[1,2,4]triazolo[1,5-a]pyridin-6-yl)-6-isopropyl-4H-pyrrolo[3,2-d]thiazol-2-yl)-2,5-dimethylpiperazin-1-yl)-N,N-dimethylacetamide], the figures for the IC50 in assay [1] and in assay [2] were 15.5 nM and 11.1 nM, respectively.

Usually IC50 stands for the concentration needed to halve the response being measured.

(Values after patent US20230139171A1 (SITA Information Networking Computing UK Limited, priority 2019, published 2023).)
